In BindingDB's records for doi:10.7270/Q2Q52N1X (Vanderbilt Screening Center for GPCRs, Ion Channels and …, 2009):

biological target: T1, Solute carrier family 12 member 5 (Homo sapiens, UniProt Q9H2X9); assay: KCC2 modulator potency by thallium flux, dose response, cell-based, HEK293 KCC2, FluoZin-2 fluorescence (AID 1736); settings: not given
T1 sequence (Q9H2X9 whole entry): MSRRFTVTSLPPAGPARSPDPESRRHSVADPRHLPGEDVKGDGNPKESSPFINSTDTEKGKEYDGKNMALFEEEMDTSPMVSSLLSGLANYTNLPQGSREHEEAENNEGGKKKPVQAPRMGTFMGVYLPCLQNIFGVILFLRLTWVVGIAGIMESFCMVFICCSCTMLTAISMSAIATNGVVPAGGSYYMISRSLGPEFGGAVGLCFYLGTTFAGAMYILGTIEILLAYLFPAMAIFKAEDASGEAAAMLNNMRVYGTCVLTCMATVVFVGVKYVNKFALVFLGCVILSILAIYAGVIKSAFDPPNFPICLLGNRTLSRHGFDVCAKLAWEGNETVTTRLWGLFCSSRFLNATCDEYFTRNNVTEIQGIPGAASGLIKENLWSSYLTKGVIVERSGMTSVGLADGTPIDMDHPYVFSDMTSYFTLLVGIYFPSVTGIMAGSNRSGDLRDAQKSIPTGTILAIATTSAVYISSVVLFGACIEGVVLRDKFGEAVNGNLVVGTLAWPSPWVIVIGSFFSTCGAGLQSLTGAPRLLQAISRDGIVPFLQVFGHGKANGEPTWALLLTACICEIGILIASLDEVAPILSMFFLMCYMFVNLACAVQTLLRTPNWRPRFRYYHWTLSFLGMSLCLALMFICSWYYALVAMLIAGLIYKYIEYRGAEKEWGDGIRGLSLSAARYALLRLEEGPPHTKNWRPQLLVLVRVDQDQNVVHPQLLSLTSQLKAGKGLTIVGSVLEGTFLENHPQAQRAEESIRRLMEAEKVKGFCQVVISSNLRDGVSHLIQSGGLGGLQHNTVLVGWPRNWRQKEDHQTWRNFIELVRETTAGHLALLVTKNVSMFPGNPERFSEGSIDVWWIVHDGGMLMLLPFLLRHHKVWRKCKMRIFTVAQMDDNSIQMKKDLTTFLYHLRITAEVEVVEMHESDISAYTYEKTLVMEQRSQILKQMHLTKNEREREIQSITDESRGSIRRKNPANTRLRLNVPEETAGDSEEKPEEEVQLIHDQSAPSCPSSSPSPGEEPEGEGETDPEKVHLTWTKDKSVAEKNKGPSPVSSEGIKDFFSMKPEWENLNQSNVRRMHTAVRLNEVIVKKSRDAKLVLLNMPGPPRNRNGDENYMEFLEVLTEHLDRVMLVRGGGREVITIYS

Structure (SMILES)	EC50
O=C(c1ccc(N2CCCCCC2)c([N+](=O)[O-])c1)N1CCc2ccccc21 [1-(4-azepan-1-yl-3-nitrobenzoyl)indoline]	0.556 µM
C=CCNc1oc(Cc2cccc3ccccc23)nc1C#N [2-(1-naphthalenylmethyl)-5-(prop-2-enylamino)-4-oxazolecarbonitrile]	12.1 µM
O=C(CSc1nnc(CNc2ccccc2)o1)N1CCCc2ccccc21 [1-(3,4-Dihydro-2H-quinolin-1-yl)-2-(5-phenylaminomethyl-[1,3,4]oxadiazol-2-ylsulfanyl)-ethanone]	34.6 µM
O=C(OCC(=O)N1CCc2ccccc2C1)c1ccc(N2CCOCC2)c([N+](=O)[O-])c1 [4-(4-morpholinyl)-3-nitrobenzoic acid [2-(3,4-dihydro-1H-isoquinolin-2-yl)-2-oxoethyl] ester]	5.9 µM
O=C(C1CCN(S(=O)(=O)c2cccc3nsnc23)CC1)N1CCc2ccccc2C1 [2-{[1-(2,1,3-benzothiadiazol-4-ylsulfonyl)piperidin-4-yl]carbonyl}-1,2,3,4-tetrahydroisoquinoline]	34.1 µM
Cc1ccc(-c2csc(NC(=O)CCNC(=O)c3ccccc3Cl)n2)cc1 [2-chloranyl-N-[3-[[4-(4-methylphenyl)-1,3-thiazol-2-yl]amino]-3-oxidanylidene-propyl]benzamide]	2.16 µM
CCc1cc(C(=O)N2CCCC(CNC(=O)c3ccc(-c4ccccc4)cc3)C2)no1 (stereo not drawn) [MLS000731765]	4.25 µM
O=C(NC(=S)NNC(=O)c1cnccn1)c1ccc(Cl)cc1 [4-Chloro-N-[N'-(pyrazine-2-carbonyl)-hydrazinocarbothioyl]-benzamide]	13 µM
Sc1nnc(CNc2cccc(Cl)c2)o1 [5-[(3-chloroanilino)methyl]-3H-1,3,4-oxadiazole-2-thione]	1.49 µM
O=C(Cn1cnc2c(nnn2Cc2ccc(F)cc2)c1=O)NCc1ccc2c(c1)OCO2 [2-[3-(4-fluorobenzyl)-7-keto-triazolo[4,5-d]pyrimidin-6-yl]-N-piperonyl-acetamide]	2.61 µM
S=C(NN=Cc1cccc2ccccc12)Nc1cccc(Cl)c1 [1-(3-chlorophenyl)-3-(1-naphthalenylmethylideneamino)thiourea]	12.7 µM
Cc1nn(C)c(C)c1C=C1SC(S)=NC1=O [MLS000324943]	1.51 µM
Cc1[nH]c2ccccc2c1Cc1n[nH]c(=S)n1C	25.1 µM
Cc1cc(C(=O)COC(=O)CCc2nc3ccccc3s2)c(C)n1C [3-(1,3-benzothiazol-2-yl)propanoic acid [2-oxo-2-(1,2,5-trimethyl-3-pyrrolyl)ethyl] ester]	16 µM
CN1/C(=C\C(=S)NC(=O)c2cccc(Br)c2)C(C)(C)c2ccccc21 [SMR000254682]	3.68 µM
O=C(c1cc(COc2c(F)cccc2F)on1)N1CCC(c2ccncc2)CC1 [4-[1-({5-[(2,6-difluorophenoxy)methyl]isoxazol-3-yl}carbonyl)piperidin-4-yl]pyridine]	12.2 µM
CC(C)CCNC(=O)COC(=O)/C=C/c1ccc2ccccc2n1 [(E)-3-(2-quinolinyl)-2-propenoic acid [2-(3-methylbutylamino)-2-oxoethyl] ester]	2.75 µM
Cc1nn(-c2ccc(F)cc2)c(C)c1NS(=O)(=O)c1ccc(Cl)cc1 [4-chloranyl-N-[1-(4-fluorophenyl)-3,5-dimethyl-pyrazol-4-yl]benzenesulfonamide]	112 µM
CCc1ccc(Nc2nnc(SCc3cc(=O)n4ccsc4n3)s2)cc1 [7-[[5-(4-ethylanilino)-1,3,4-thiadiazol-2-yl]sulfanylmethyl]-[1,3]thiazolo[3,2-a]pyrimidin-5-one]	0.281 µM
CC(C)N1C(=O)S/C(=C/c2ccccc2OCc2ccc(C(=O)O)cc2)C1=O	218 µM
O=C(Cn1nc(-c2ccccc2)ccc1=O)NCc1ccc2c(c1)OCO2 [2-(6-keto-3-phenyl-pyridazin-1-yl)-N-piperonyl-acetamide]	1.33 µM

Structure (SMILES)	EC50
O=C(CN1C(=O)NC2(CCCC2)C1=O)Nc1nc(-c2ccc(F)cc2)cs1 [2-(2,4-diketo-1,3-diazaspiro[4.4]nonan-3-yl)-N-[4-(4-fluorophenyl)thiazol-2-yl]acetamide]	0.231 µM
O=C(CSc1ccc(-c2cccs2)nn1)Nc1ccccc1F [MLS000621184]	2.19 µM
COc1ccccc1N1CCN(C(=S)NC(=O)/C=C/c2ccccc2)CC1 [(E)-N-[4-(2-Methoxy-phenyl)-piperazine-1-carbothioyl]-3-phenyl-acrylamide]	109 µM
Cc1ccc(S(=O)(=O)N2CCC(=O)N(C(COCc3ccccc3)Cc3ccccc3)CC2)cc1 (stereo not drawn) [1-(4-methylphenyl)sulfonyl-4-(1-phenyl-3-phenylmethoxy-propan-2-yl)-1,4-diazepan-5-one]	1.17 µM
Cc1nn2c(nc(O)c3ccccc32)c1C=O [MLS000565386]	40.9 µM
O=C(CCSCCc1ccccn1)Nc1ccc(Cc2ccncc2)cc1 [3-(2-pyridin-2-ylethylsulfanyl)-N-[4-(pyridin-4-ylmethyl)phenyl]propanamide]	8.25 µM
Cc1oc(-c2ccccc2)nc1C[S+]([O-])CC(=O)N1CCc2ccccc2C1 (stereo not drawn) [1-(3,4-dihydro-1H-isoquinolin-2-yl)-2-[(5-methyl-2-phenyl-1,3-oxazol-4-yl)methylsulfinyl]ethanone]	4.86 µM
Cn1nccc1C(=O)OCC(=O)Nc1nc(-c2ccccc2)cs1 [2-Methyl-2H-pyrazole-3-carboxylic acid (4-phenyl-thiazol-2-ylcarbamoyl)-methyl ester]	10.9 µM
S=C(NCc1cccnc1)Nc1ccc(Oc2ccccc2)cc1 [1-(4-phenoxyphenyl)-3-(3-pyridinylmethyl)thiourea]	5.3 µM
O=C(NCCc1c[nH]c2ccccc12)c1cc(S(=O)(=O)N2CCCCC2)ccc1N1CCOCC1 [N-[2-(1H-indol-3-yl)ethyl]-2-morpholin-4-yl-5-piperidin-1-ylsulfonylbenzamide]	20.1 µM
O=C(CN(c1ccc2c(c1)OCCO2)S(=O)(=O)c1ccccc1)N1CCN(Cc2ccccc2)CC1 [MLS000693333]	2.43 µM
CC(=O)NC(C)C(=O)OCC(=O)c1ccc(-c2ccccc2)cc1 (stereo not drawn) [2-acetamidopropanoic acid [2-oxo-2-(4-phenylphenyl)ethyl] ester]	7.92 µM
CC(C)(CN=C(S)NCCc1ccccc1)CN=C(S)NCCc1ccccc1 [1-[2,2-dimethyl-3-(2-phenylethylcarbamothioylamino)propyl]-3-(2-phenylethyl)thiourea]	0.929 µM
O=C(C=Cc1ccccc1)CC(=O)c1ccccc1O [MLS000627068]	12.4 µM
Cc1ccc(C(=O)Nc2nc(=O)n(C(=O)c3ccccc3Cl)s2)cc1 [MLS000540480]	3.93 µM
O=C(O)CCc1cc(I)c(Oc2ccc(O)c(I)c2)c(I)c1 [3-[4-(4-hydroxy-3-iodophenoxy)-3,5-diiodophenyl]propanoic acid]	11.1 µM
NC1=NC[C@@H](Cc2ccc(O)cc2)N1CCc1cc(C(F)(F)F)cc(C(F)(F)F)c1	7.94 µM
O=C(c1cc2c(s1)-c1ccccc1OC2)N1CCC2(CC1)OCCO2 [1,4-dioxa-8-azaspiro[4.5]decan-8-yl(4H-thieno[3,2-c][1]benzopyran-2-yl)methanone]	30.2 µM
O=C(c1ccccc1SCc1ccc(F)cc1)N1CCOCC1 [MLS000712999]	9 µM
O=C(NCc1ccc2c(c1)OCO2)c1ccc(COc2cc(Cl)ccc2Cl)o1 [5-[(2,5-dichlorophenoxy)methyl]-N-piperonyl-2-furamide]	6.51 µM
Cc1ccc(Cn2c(SCC(=O)Nc3cc(C)on3)nc3ccccc3c2=O)cc1 [2-[[4-keto-3-(4-methylbenzyl)quinazolin-2-yl]thio]-N-(5-methylisoxazol-3-yl)acetamide]	82 µM

same assay, conditions: inactive by the depositor's call

Structure (SMILES)	EC50
Cc1cccc(N2CCN(C(=O)Cn3ccc4ccccc4c3=O)CC2)c1C [2-[2-[4-(2,3-dimethylphenyl)-1-piperazinyl]-2-oxoethyl]-1-isoquinolinone]	260 µM
O=C(Cn1nnc(-c2ccccc2-n2cnnn2)n1)NCc1ccccc1 [MLS000073516]	24 µM
CCOC(=O)c1c(C)[nH]c(C)c1C(=O)CSc1nc(N)cc(N)n1 [SMR000063952]	1.88 µM
O=C(Cn1cnc2c(nnn2Cc2ccc(F)cc2)c1=O)NCc1ccco1 [2-[3-(4-fluorobenzyl)-7-keto-triazolo[4,5-d]pyrimidin-6-yl]-N-(2-furfuryl)acetamide]	49 µM
Cc1nnc(NC(=O)c2ccc3ccccc3c2)o1 [MLS000056450]	85.7 µM
O=[N+]([O-])c1ccc(NC2CCN(Cc3ccccc3)CC2)c([N+](=O)[O-])c1 [(1-benzyl-4-piperidyl)-(2,4-dinitrophenyl)amine]	5.49 µM
